From the supplement of paper PMC10307832

Legend:
Assay in all cases: relative viability (nuclei count vs DMSO), 5 days (fraction); higher = more cells survive
[1] = compound: C1=CC=C2C(=C1)C=CC(=C2SSC3=C(C=CC4=CC=CC=C43)O)O [IPA-3] + CC(=O)Nc1cccc(-n2c(=O)n(C3CC3)c(=O)c3c(Nc4ccc(I)cc4F)n(C)c(=O)c(C)c32)c1 [Trametinib] (partner 0.02 µM)
Procedure, shortened: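 Dosing by pin tool came one day after lung cancer cell lines were seeded in 1536-well plates, using either one drug or a fixed anchor-drug dose plus five library-drug doses (not always all listed) in √10 steps. After 5 days, nuclei were counted on 4× images. Relative viability is treated-well nuclei count divided by vehicle-well nuclei count, and values are medians of duplicate plates.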

[2] = compound: C1=CC=C2C(=C1)C=CC(=C2SSC3=C(C=CC4=CC=CC=C43)O)O [IPA-3]
Procedure, shortened: (§1)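 Only plates meeting two conditions passed: control CV below 25% and at least one doubling. Lung cancer cell lines, kept overnight at 37 °C in 1536-well plates, were pinned with five library-drug doses (not always all listed) √10 apart on vehicle-anchored plates and grown 5 days without medium change. A one-step fix, permeabilisation and Hoechst stain preceded 4× imaging and MetaXpress nuclear counting. Viability equals treated-well nuclei divided by vehicle-well nuclei, as the median over plates.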

[3] = compound: Cn1c(Nc2ccc(C(F)(F)F)cc2)nc2cc(Oc3ccnc(-c4ncc(C(F)(F)F)[nH]4)c3)ccc21 [RAF265]
Procedure, shortened: as §1

[4] = compound: Cc1ccc(-n2nc(C(C)(C)C)cc2NC(=O)Nc2ccc(OCCN3CCOCC3)c3ccccc23)cc1 [Doramapimod]
Procedure, shortened: as §1

Row | Cell Line | relative viability ([1]; first compound 0.2 µM) | relative viability ([1]; first compound 0.6325 µM) | relative viability ([1]; first compound 2 µM) | relative viability ([1]; first compound 6.325 µM) | relative viability ([1]; first compound 20 µM) | relative viability ([2]; 0.2 µM) | relative viability ([2]; 0.6325 µM) | relative viability ([2]; 2 µM) | relative viability ([2]; 6.325 µM) | relative viability ([2]; 20 µM) | relative viability ([3]; 0.01 µM) | relative viability ([3]; 0.03162 µM) | relative viability ([3]; 0.1 µM) | relative viability ([3]; 0.3162 µM) | relative viability ([3]; 1 µM) | relative viability ([4]; 0.02 µM) | relative viability ([4]; 0.06325 µM) | relative viability ([4]; 0.2 µM) | relative viability ([4]; 0.6325 µM) | relative viability ([4]; 2 µM)
1 | HCC-366 | 0.487 | 0.301 | 0.374 | 0.336 | 0.283 | 1.04 | 0.976 | 0.98 | 1.03 | 1.05 | 1.03 | 0.99 | 1.06 | 0.975 | 0.947 | 0.951 | 0.979 | 1 | 1.04 | 0.99
2 | NCI-H2347 | 0.278 | 0.276 | 0.286 | 0.268 | 0.281 | 1.21 | 0.962 | 1 | 1.01 | 1.1 | 1.16 | 0.975 | 0.984 | 0.822 | 0.528 | 1.05 | 0.973 | 1.01 | 0.964 | 0.959
3 | SW 900 | 0.939 | 0.497 | 0.752 | 0.675 | 0.938 | 1.13 | 0.698 | 0.686 | 0.775 | 0.775 | 1.06 | 0.792 | 0.856 | 0.679 | 0.527 | 0.893 | 1.03 | 0.941 | 0.945 | 0.737
4 | LXF-289 | 0.714 | 0.646 | 0.668 | 0.662 | 0.762 | 1.08 | 0.999 | 1.04 | 1.06 | 1.13 | 1.02 | 1.1 | 0.976 | 0.807 | 0.768 | 0.999 | 0.986 | 1.01 | 0.982 | 0.943
5 | NCI-H1793 | 0.456 | 0.373 | 0.448 | 0.376 | 0.437 | 1.14 | 0.768 | 0.884 | 1.09 | 1.04 | 1.1 | 0.856 | 0.731 | 0.321 | 0.48 | 0.894 | 0.843 | 0.896 | 0.94 | 0.884
6 | LU99A | 0.608 | 0.551 | 0.502 | 0.553 | 0.514 | 1.02 | 0.89 | 0.932 | 0.919 | 0.98 | 0.971 | 0.987 | 0.705 | 0.492 | 0.373 | 0.944 | 0.906 | 1.03 | 1 | 0.949
7 | PC-14 | 1.23 | 0.654 | 0.699 | 0.634 | 0.918 | 1.16 | 0.963 | 0.936 | 0.898 | 1.09 | 1.02 | 0.967 | 1.1 | – | 0.845 | 1.06 | 0.998 | 0.968 | 1.14 | 0.933
8 | NCI-H2085 | 0.625 | 0.602 | 0.637 | 0.577 | 0.714 | 1.07 | 0.957 | 1.01 | 0.933 | 1.18 | 1.04 | 0.904 | 1.05 | 0.915 | 0.97 | 1.04 | 0.975 | 1.01 | 1.01 | 0.966
9 | NCI-H2170 | 0.958 | 0.923 | 0.868 | 0.846 | 0.993 | 1.08 | 1.01 | 0.999 | 0.878 | 0.988 | 0.957 | 0.896 | 0.877 | 0.755 | 0.716 | 0.923 | 0.98 | 0.996 | 0.972 | 0.943
10 | HCC-78 | 0.832 | 0.714 | 0.806 | 0.849 | 0.918 | 1.04 | 0.907 | 1.04 | 1.04 | 0.994 | 0.947 | 1.12 | 1.15 | 0.927 | 0.878 | 0.962 | 1.07 | 1.06 | 1.14 | 1.02
11 | NCI-H1395 | 1.02 | 1.03 | 1.04 | 1.05 | 1.13 | 1.04 | 0.947 | 0.879 | 0.918 | 1.04 | 1.03 | 0.866 | 0.899 | 0.774 | 0.689 | 1.01 | 1.18 | 1.07 | 0.94 | 0.831
12 | NCI-H2126 | 0.569 | 0.56 | 0.521 | 0.501 | 0.6 | 1.07 | 0.974 | 0.976 | 0.995 | 1.11 | 1.04 | 0.949 | 0.951 | 0.855 | 0.72 | 1.02 | 1.02 | 0.973 | 1.03 | 0.967
13 | H3255 | 0.756 | 0.573 | 0.629 | 0.554 | 0.606 | 1 | 0.973 | 0.895 | 0.986 | 1.22 | 1 | 1.05 | 1.03 | – | 0.67 | 1.05 | 0.981 | 0.96 | 0.968 | 0.933
14 | HCC-15 | 0.444 | 0.352 | 0.391 | 0.422 | 0.436 | 1.17 | 0.98 | 0.931 | 0.972 | 0.998 | 0.99 | 1.02 | 1.01 | 0.819 | 0.684 | 0.993 | 0.99 | 0.936 | 0.74 | 0.915
15 | NCI-H661 | 0.679 | 0.584 | 0.613 | 0.589 | 0.555 | 1.09 | 0.951 | 0.984 | 1 | 1.01 | 1.01 | 0.962 | 0.774 | 0.643 | 0.57 | 0.978 | 1.02 | 0.995 | 1.06 | 0.915
16 | NCI-H2009 | 0.307 | 0.266 | 0.245 | 0.279 | 0.241 | 1.17 | 0.969 | 1.01 | 0.984 | 0.874 | 0.997 | 0.922 | 0.907 | 0.866 | 0.649 | 1.03 | 1.14 | 1.11 | 1.17 | 1.02
